These compounds were tested against T1, SHP2 (Homo sapiens, UniProt Q06124) (assay: SHP2 allosteric inhibitor enzyme activity assay (DiFMUP fluorescence)). Conditions: class symbols.
T1 sequence (Q06124 1-593): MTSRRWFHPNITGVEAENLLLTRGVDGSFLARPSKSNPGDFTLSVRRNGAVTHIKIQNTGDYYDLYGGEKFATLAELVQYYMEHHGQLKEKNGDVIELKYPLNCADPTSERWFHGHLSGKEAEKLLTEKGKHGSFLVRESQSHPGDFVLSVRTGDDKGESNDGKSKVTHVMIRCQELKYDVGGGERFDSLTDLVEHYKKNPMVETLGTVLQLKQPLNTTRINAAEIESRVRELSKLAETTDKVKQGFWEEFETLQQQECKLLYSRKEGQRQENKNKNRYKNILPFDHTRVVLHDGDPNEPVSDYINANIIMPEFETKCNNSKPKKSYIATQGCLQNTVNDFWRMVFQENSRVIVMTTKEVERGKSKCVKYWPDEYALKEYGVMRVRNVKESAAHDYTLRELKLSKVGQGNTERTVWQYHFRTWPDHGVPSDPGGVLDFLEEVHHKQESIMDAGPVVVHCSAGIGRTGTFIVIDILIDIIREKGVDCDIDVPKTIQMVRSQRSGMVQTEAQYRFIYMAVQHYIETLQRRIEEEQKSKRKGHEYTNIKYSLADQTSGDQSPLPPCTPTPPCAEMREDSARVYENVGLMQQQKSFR
Type: biochemical
Procedure, shortened: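 SHP2 activated by 0.5 μM IRS1_pY1172(dPEG8)pY1222 peptide, 0.2 ng enzyme per well, 1 h at room temperature with compound (1 μM top, 3-fold series), then DiFMUP substrate 1 h. Buffer: 60 mM HEPES, 75 mM NaCl, 75 mM KCl, 0.05% BRIJ-35, 1 mM EDTA, 5 mM DTT. Fluorescence ex 340/em 450 nm; IC50 by variable-slope fit.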
An IC50 of at most 20 nM was found for `N[C@@H]1c2ccccc2CC12CCN(c1nc3[nH]nc(C4=CCCc5ccccc54)c3c(=O)[nH]1)CC2` [Example 111, (S)-6-(1-amino-1,3-dihydrospiro[indene-2,4′-piperidin]-1′-yl)-3-(3,4-dihydronaphthalen-1-yl)-1,5-dihydro-4H-pyrazolo[3,4-d]pyrimidin-4-one] in this work. An IC50 of at most 20 nM was found for `N[C@@H]1c2ccccc2CC12CCN(c1nc3[nH]nc(C4=CCCc5ncccc54)c3c(=O)[nH]1)CC2` [Example 112, (S)-6-(1-amino-1,3-dihydrospiro[indene-2,4′-piperidin]-1′-yl)-3-(7,8-dihydroquinolin-5-yl)-1,5-dihydro-4H-pyrazolo[3,4-d]pyrimidin-4-one] in this work. An IC50 of at most 20 nM was found for `Cn1c2c(c3ccccc31)C(c1n[nH]c3nc(N4CCC5(CC4)Cc4ccccc4[C@H]5N)[nH]c(=O)c13)=CCC2` [Example 113, (S)-6-(1-amino-1,3-dihydrospiro[indene-2,4′-piperidin]-1′-yl)-3-(9-methyl-2,9-dihydro-1H-carbazol-4-yl)-1,5-dihydro-4H-pyrazolo[3,4-d]pyrimidin-4-one] in this work. An IC50 of at most 20 nM was found for `N[C@@H]1c2ccccc2CC12CCN(c1nc3[nH]nc(C4=CCOc5ncccc54)c3c(=O)[nH]1)CC2` [Example 116, (S)-6-(1-amino-1,3-dihydrospiro[indene-2,4′-piperidin]-1′-yl)-3-(2H-pyrano[2,3-b]pyridin-4-yl)-1,5-dihydro-4H-pyrazolo[3,4-d]pyrimidin-4-one] in this work. An IC50 of at most 20 nM was found for `N[C@@H]1c2ccccc2CC12CCN(c1nc3[nH]nc(C4=CCCc5sccc54)c3c(=O)[nH]1)CC2` [Example 117, (S)-6-(1-amino-1,3-dihydrospiro[indene-2,4′-piperidin]-1′-yl)-3-(6,7-dihydrobenzo[b]thiophen-4-yl)-1,5-dihydro-4H-pyrazolo[3,4-d]pyrimidin-4-one] in this work. An IC50 of 20 to 60 nM was found for `CCCCCc1cc2c(s1)CCC=C2c1n[nH]c2nc(N3CCC4(CC3)Cc3ccccc3[C@H]4N)[nH]c(=O)c12` [Example 118, (S)-6-(1-amino-1,3-dihydrospiro[indene-2,4′-piperidin]-1′-yl)-3-(2-pentyl-6,7-dihydrobenzo[b]thiophen-4-yl)-1,5-dihydro-4H-pyrazolo[3,4-d]pyrimidin-4-one] in this work. An IC50 of at most 20 nM was found for `N[C@@H]1c2ccccc2CC12CCN(c1nc3[nH]nc(C4=CCCc5occc54)c3c(=O)[nH]1)CC2` [Example 119, (S)-6-(1-amino-1,3-dihydrospiro[indene-2,4′-piperidin]-1′-yl)-3-(6,7-dihydrobenzofuran-4-yl)-1,5-dihydro-4H-pyrazolo[3,4-d]pyrimidin-4-one] in this work. An IC50 of at most 20 nM was found for `Cn1ccc2c1CCC=C2c1n[nH]c2nc(N3CCC4(CC3)Cc3ccccc3[C@H]4N)[nH]c(=O)c12` [Example 120, (S)-6-(1-amino-1,3-dihydrospiro[indene-2,4′-piperidin]-1′-yl)-3-(1-methyl-6,7-dihydro-1H-indol-4-yl)-1,5-dihydro-4H-pyrazolo[3,4-d]pyrimidin-4-one] in this work. An IC50 of at most 20 nM was found for `Cn1cc2c(n1)CCC=C2c1n[nH]c2nc(N3CCC4(CC3)Cc3ccccc3[C@H]4N)[nH]c(=O)c12` [Example 121, (S)-6-(1-amino-1,3-dihydrospiro[indene-2,4′-piperidin]-1′-yl)-3-(2-methyl-6,7-dihydro-2H-indazol-4-yl)-1,5-dihydro-4H-pyrazolo[3,4-d]pyrimidin-4-one] in this work. An IC50 of at most 20 nM was found for `N[C@@H]1c2ccccc2CC12CCN(c1nc3[nH]nc(C4=CCC(F)(F)c5ccccc54)c3c(=O)[nH]1)CC2` [Example 123, (S)-6-(1-amino-1,3-dihydrospiro[indene-2,4′-piperidin]-1′-yl)-3-(4,4-difluoro-3,4-dihydronaphtlialen-1-yl)-1,5-dihydro-4H-pyrazolo[3,4-d]pyrimidin-4-one] in this work. An IC50 of at most 20 nM was found for `N#Cc1ccc2c(c1)C(c1n[nH]c3nc(N4CCC5(CC4)Cc4ccccc4C5N)[nH]c(=O)c13)=CCC2(F)F` (stereo not shown) [Example 126] in this work. An IC50 of at most 20 nM was found for `CC1(C)CC=C(c2n[nH]c3nc(N4CCC5(CC4)Cc4ccccc4C5N)[nH]c(=O)c23)c2cccnc21` (stereo not shown) [Example 127, 6-(1-amino-1,3-dihydrospiro[indene-2,4′-piperidin]-1′-yl)-3-(8,8-dimethyl-7,8-dihydroquinolin-5-yl)-1,5-dihydro-4H-pyrazolo[3,4-d]pyrimidin-4-one] in this work. An IC50 of at most 20 nM was found for `NC1c2ccccc2CC12CCN(c1nc3[nH]nc(C4=CCCn5ccnc54)c3c(=O)[nH]1)CC2` (stereo not shown) [Example 128] in this work. An IC50 of 20 to 60 nM was found for `Cc1nc2c(s1)C(c1n[nH]c3nc(N4CCC5(CC4)Cc4ccccc4C5N)[nH]c(=O)c13)=CC(C)(C)C2` (stereo not shown) [Example 129] in this work. An IC50 of 20 to 60 nM was found for `CC1(C)C=C(c2n[nH]c3nc(N4CCC5(CC4)Cc4ccccc4C5N)[nH]c(=O)c23)c2sc(N)nc2C1` (stereo not shown) [Example 130, 6-(1-amino-1,3-dihydrospiro[indene-2,4′-piperidin]-1′-yl)-3-(2-amino-5,5-dimethyl-4,5-dihydrobenzo[d]thiazol-7-yl)-1,5-dihydro-4H-pyrazolo[3,4-d]pyrimidin-4-one] in this work. An IC50 of at most 20 nM was found for `Cn1ncc2c1CCC=C2c1n[nH]c2nc(N3CCC4(CC3)Cc3ccccc3[C@H]4N)[nH]c(=O)c12` [Example 131, (S)-6-(1-amino-1,3-dihydrospiro[indene-2,4′-piperidin]-1′-yl)-3-(1-methyl-6,7-dihydro-1H-indazol-4-yl)-1,5-dihydro-4H-pyrazolo[3,4-d]pyrimidin-4-one] in this work. An IC50 of at most 20 nM was found for `N[C@@H]1c2ccccc2CC12CCN(c1nc3[nH]nc(C4=CCC5(CC5)c5ccccc54)c3c(=O)[nH]1)CC2` [Example 132, (S)-6-(1-amino-1,3-dihydrospiro[indene-2,4′-piperidin]-1′-yl)-3-(2′H-spiro[cyclopropane-1,1′-naphthalen]-4′-yl)-1,5-dihydro-4H-pyrazolo[3,4-d]pyrimidin-4-one] in this work. An IC50 of at most 20 nM was found for `N[C@@H]1c2ccccc2CC12CCN(c1nc3[nH]nc(C4=CCC5(CC5)c5ncccc54)c3c(=O)[nH]1)CC2` [Example 133, (S)-6-(1-amino-1,3-dihydrospiro[indene-2,4′-piperidin]-1′-yl)-3-(7′H-spiro[cyclopropane-1,8′-quinolin]-5′-yl)-1,5-dihydro-4H-pyrazolo[3,4-d]pyrimidin-4-one] in this work. An IC50 of at most 20 nM was found for `N[C@@H]1c2ccccc2CC12CCN(c1nc3[nH]nc(C4=CCOc5ccc(Cl)cc54)c3c(=O)[nH]1)CC2` [Example 135, (S)-6-(1-amino-1,3-dihydrospiro[indene-2,4′-piperidin]-1′-yl)-3-(6-chloro-2H-chromen-4-yl)-1,5-dihydro-4H-pyrazolo[3,4-d]pyrimidin-4-one] in this work. An IC50 of 20 to 60 nM was found for `N[C@@H]1c2ccccc2CC12CCN(c1nc3[nH]nc(C4=CCCc5nc(C(F)(F)F)cc(C(F)(F)F)c54)c3c(=O)[nH]1)CC2` [Example 137, (S)-6-(1-amino-1,3-dihydrospiro[indene-2,4′-piperidin]-1′-yl)-3-(2,4-bis(trifluoromethyl)-7,8-dihydroquinolin-5-yl)-1,5-dihydro-4H-pyrazolo[3,4-d]pyrimidin-4-one] in this work. An IC50 of 20 to 60 nM was found for `N[C@@H]1c2ccccc2CC12CCN(c1nc3[nH]nc(C4=CCCc5ncc(C(F)(F)F)cc54)c3c(=O)[nH]1)CC2` [Example 138, (S)-6-(1-amino-1,3-dihydrospiro[indene-2,4′-piperidin]-1′-yl)-3-(3-(trifluoromethyl)-7,8-dihydroquinolin-5-yl)-1,5-dihydro-4H-pyrazolo[3,4-d]pyrimidin-4-one] in this work. An IC50 of 20 to 60 nM was found for `Cc1cc(C(F)(F)F)c2c(n1)CCC=C2c1n[nH]c2nc(N3CCC4(CC3)Cc3ccccc3[C@H]4N)[nH]c(=O)c12` [Example 140, (S)-6-(1-amino-1,3-dihydrospiro[indene-2,4′-piperidin]-1′-yl)-3-(2-methyl-4-(trifluoromethyl)-7,8-dihydroquinolin-5-yl)-1,5-dihydro-4H-pyrazolo[3,4-d]pyrimidin-4-one] in this work. An IC50 of 20 to 60 nM was found for `N[C@@H]1c2ccccc2CC12CCN(c1nc3[nH]nc(C4=CCCc5nc(C6CC6)cc(C(F)(F)F)c54)c3c(=O)[nH]1)CC2` [Example 141, (S)-6-(1-amino-1,3-dihydrospiro[indene-2,4′-piperidin]-1′-yl)-3-(2-cyclopropyl-4-(trifluoromethyl)-7,8-dihydroquinolin-5-yl)-1,5-dihydro-4H-pyrazolo[3,4-d]pyrimidin-4-one] in this work. An IC50 of 20 to 60 nM was found for `Cc1cc(C(F)F)c2c(n1)CCC=C2c1n[nH]c2nc(N3CCC4(CC3)Cc3ccccc3[C@H]4N)[nH]c(=O)c12` [Example 142, (S)-6-(1-amino-1,3-dihydrospiro[indene-2,4′-piperidin]-1′-yl)-3-(4-(difluoromethyl)-2-methyl-7,8-dihydroquinolin-5-yl)-1,5-dihydro-4H-pyrazolo[3,4-d]pyrimidin-4-one] in this work.

Same assay, conditions: numeric values
An IC50 of 1.7 nM was found for `N[C@@H]1c2ccccc2CC12CCN(c1nc3[nH]nc(C4=CSCc5ccccc54)c3c(=O)[nH]1)CC2` [Example 134, (S)-6-(1-amino-1,3-dihydrospiro[indene-2,4′-piperidin]-1′-yl)-3-(1H-isothiochromen-4-yl)-1,5-dihydro-4H-pyrazolo[3,4-d]pyrimidin-4-one] in this work.

— patent US20230192705A1, “SHP2 INHIBITORS, COMPOSITIONS AND USES THEREOF” (Betta Pharmaceuticals Co., Ltd, priority 2020, published 2023)
